Assay results published in patent publication US7294638B2, “Treatment of ADHD” (H. Lundbeck A/S, priority 2001, dated 2007).

How the values were obtained:
DAT knock-out (KO) mice [1] = test: DAT-KO mice model of ADHD (hyperactivity); type: in vivo; details: animal model of ADHD
From the text: A very useful animal model of ADHD is the DAT knock-out (KO) mice (Gainetdinov et al. Science 1999, 283, 397-401).
The compound, (S)-(+)-3-[1-[2-(1-acetyl-2,3-dihydro-1H-indol-3-yl)ethyl]-1,2,3,6-tetrahydropyridin-4-yl]-6-chloro-1H-indole, has been tested in the DAT-KO mice, an animal model which have many behaviour patterns and responses to psychostimulants in common with individuals with ADHD (Gainetdinov et al. Science 1999, 283, 397-401).

DAT knock-out (KO) mice [2] = details: Gainetdinov et al. Science 1999; cited from earlier work
[3] = clinical; Barrickman et al. 1991; cited from earlier work
dopamine D4 receptors = biological target: T1, dopamine D4 receptors (Homo sapiens, UniProt P21917); details: data in WO 98/28293; cited from earlier work
T1 sequence (P21917 1-419): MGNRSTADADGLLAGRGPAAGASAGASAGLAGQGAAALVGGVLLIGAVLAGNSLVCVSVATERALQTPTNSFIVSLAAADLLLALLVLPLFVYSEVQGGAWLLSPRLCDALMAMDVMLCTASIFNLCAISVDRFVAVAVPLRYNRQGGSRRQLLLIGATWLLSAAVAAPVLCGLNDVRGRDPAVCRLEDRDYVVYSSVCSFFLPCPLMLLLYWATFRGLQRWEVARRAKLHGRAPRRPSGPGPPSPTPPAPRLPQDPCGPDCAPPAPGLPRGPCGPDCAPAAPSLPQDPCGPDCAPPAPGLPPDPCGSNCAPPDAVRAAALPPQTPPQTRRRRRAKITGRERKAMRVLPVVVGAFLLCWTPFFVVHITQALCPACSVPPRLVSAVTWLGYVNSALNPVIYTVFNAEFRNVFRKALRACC

| Compound | reversal of hyperactivity in DAT-KO mice (DAT knock-out (KO) mice [2]) | other results |
| --- | --- | --- |
| CC(=O)N1C[C@@H](CCN2CC=C(c3c[nH]c4cc(Cl)ccc34)CC2)c2ccccc21 [(S)-(+)-3-[1-[2-(1-acetyl-2,3-dihydro-1H-indol-3-yl)ethyl]-1,2,3,6-tetrahydropyridin-4-yl]-6-chloro-1H-indole] | – | effect in the DAT-KO mice model (DAT knock-out (KO) mice [1]): have effect in this model |
| CNCCC(Oc1ccc(C(F)(F)F)cc1)c1ccccc1 (stereo not drawn) [fluoxetine] | counteract the hyperactivity | reducing symptoms of ADHD [3]: effective in reducing symptoms of ADHD |
| N[C@@H](Cc1c[nH]c2ccc(O)cc12)C(=O)O [5-hydroxytryptophan] | counteract the hyperactivity | – |
| CC(=O)N1CC(CCN2CC=C(c3c[nH]c4cc(Cl)ccc34)CC2)c2ccccc21 (racemic) [3-[1-[2-(1-acetyl-2,3-dihydro-1H-indol-3-yl)ethyl]-1,2,3,6-tetrahydropyridin-4-yl]-6-chloro-1H-indole] | – | dopamine D4 ligand potency (dopamine D4 receptors): potent dopamine D4 ligand |
| COC(=O)C(c1ccccc1)C1CCCCN1 (stereo not drawn) [methylphenidate] | can be reversed | – |
| c1ccc2nc(N3CCNCC3)ccc2c1 [quipazine] | counteract the hyperactivity | – |
| N[C@@H](Cc1c[nH]c2ccccc12)C(=O)O [L-tryptophan] | counteract the hyperactivity | – |
| CC(N)Cc1ccccc1 (stereo not drawn) [amphetamine] | can be reversed | – |
